According to patent publication US20250179024A1, “AMYLOID AND ASSOCIATED PATHOLOGY MODULATORS AND METHODS THEREOF” (Jawaharlal Nehru Centre for Advanced Scientific Research, priority 2022, published 2025):

Key:
Assay type in all cases: cell-based
SH-SY5Y cells [1] = assay: MTT cytotoxicity assay; details: 24 h, up to 200 μM
Experimental: The SH-SY5Y cells were seeded onto 96 well plates at cell density of 25,000 cells per well and incubated. After 24 h cells were treated with different concentration of compounds (10, 20, 50, 100 and 200 μM) and incubated. After 24 h MTT (5 mg/mL) was added to the cells and incubated for 3 h, removed media and DMSO/Methanol (1:1) solution added to dissolve formazan crystals. The absorbance was recorded at 570 nm and the percentage cell viability was calculated with respect to control cells treated with vehicle (DMSO).
NMIs modulated metal-independent and dependent Aβ aggregation, reduced ROS in vitro and in cellulo, and rescue cells from oxidative stress. The biocompatibility, the cytotoxicity of compounds of the present disclosure to neuronal cells were evaluated by MTT assay. SH-SY5Y cells were treated with different concentrations of modulators (NMIs) for 24 h and performed MTT assay to determine the cell viability.

Nrf2 = Nrf2 localisation by indirect immunofluorescence; details: Aβ treated SH-SY5Y cells
Experimental: Cells were cultured in confocal dishes up to 70% confluence and then treated with Aβ alone and with NMIs (M3), and subjected to immunofluorescence. The cells were washed twice with dPBS and then fixed with 4% paraformaldehyde for 15 min. The cells were then washed twice with dPBS for 5 min followed by treatment with permeabilization buffer (dPBS with 0.1% Triton X-100) for 10 min. The permeabilization buffer was aspirated and rinses with dPBS twice for 5 min. The samples were blocked with 10% goat serum in dPBS for 30 min at room temperature. The blocking solution was aspirated and then was treated with primary antibody (Nrf2/Iba1) with desired dilution in 4° C. with gentle shaking overnight. The samples were then washed with dPBS thrice for 5 min each and treated with Alexa Fluor-488 conjugated secondary antibody for 1 h in room temperature. The cells were washed with dPBS thrice and counterstain with DAPI (1 μM) for 10 min and imaged using confocal microscope.
M3 with in vitro antioxidant activity and in cellulo ROS quenching effect was expected to alleviate oxidative stress and modulate Nrf2 response. The effect of M3 on Nrf2 localisation in Aβ treated SH-SY5Y cells were assessed by indirect immunofluorescence staining study. […]

SH-SY5Y cells [2] = assay: Cell rescue from Zn (II)-dependent Aβ toxicity (MTT); details: Aβ 10 μM, Zn (II) 20 μM, NMIs 20 μM, 30 h; without compound ~61%
Experimental: Cell rescue from Aβ toxicity by NMIs were assessed in SH-SY5Y cells. The cells were seeded into 96 well plate at cell density of 25,000 cells per well and after 24 h the media was replaced with DMEM-F12 with low serum (2.5% FBS). After 6 h, cells were treated with Aβ (10 μM) alone and with NMIs (20 μM) in low serum media. Different concentrations of compound (10, 20 and 50 μM) were used to treat cells. For metal dependent studies, Aβ (10 μM) with metals (20 μM) in the absence and presence of NMIs (20 μM) was treated. The cells were incubated for 30 h and MTT assay was performed to calculate the percentage cell viability.
Further, the effect of concentration of compounds of the present disclosure on the cell rescue was assessed. […] The ability of NMIs to rescue cells from metal-dependent Aβ toxicity were assessed in the presence of Cu (II) and Zn (II). Cells were treated with Aβ (10 μM) along with metal ions (20 μM) and NMIs (20 μM) for 30 h. Aβ in the presence of Cu (II) reduced cell viability to ˜62% and M3 treatment had rescued cells with viability to 85% (FIG. 12C). Aβ with Zn (II) viability reduced to ˜61% and M3 treatment rescued cells by improving the viability to ˜79% (FIG. 12D). […] These in-cellulo experiments confirmed the ability of M3 to effectively rescue neuronal cells from metal-independent and dependent Aβ toxicity.

SH-SY5Y cells [3] = assay: Mitochondrial ROS measurement, MitoSOX; details: Aβ 40 μM, 8 h, Aβ alone 1.76 fold
Experimental: For quantifying mitochondrial ROS levels, SH-SY5Y cells were seeded into 96 well plates and incubated. After 24 h cells were treated with Aβ (20 μM) alone and with two different concentrations of NMIs (M3) (20 and 50 μM) for 8 h and stained with MitoSox Red (5 μM) in PBS for 15 min followed by a wash with PBS thrice. Then quickly fluorescence was measured (λex=510 nm and λem=580 nm) by Spectramax multi-well plate reader in well scan mode (>80 points, with 6 flashes per read). The relative fluorescence was used to assess ROS levels with respect to control. For ROS imaging, cells were seeded onto glass bottom dishes and incubated for 24 h. Cells were treated with Aβ (20 μM) and with NMIs (M3) (50 μM) in low serum media for 8 h. Then the cells were washed with PBS and stained with MitoSOX (5 μM) prepared in PBS and incubated. After 15 min, wash thrice with PBS and imaged in live cell set up in rhodamine channel using 63× oil immersion using Leica DMi8 fluorescence microscope.
Changes in MMP were visualized by treating the cells with Aβ (20 μM) alone and with M3 (50 μM) for 18 h followed by staining with MitoOrange. […] The ability of M3 to modulate Aβ-induced ROS levels in mitochondria was evaluated by the MitoSOX probe. The cells were treated with Aβ (40 μM) alone and with two concentrations of M3 for 8 h followed by treatment with MitoSOX to measure the relative ROS levels. […]

O=C1c2cccc3c(N(Cc4ccccn4)Cc4ccccn4)ccc(c23)C(=O)N1CCc1ccc(O)c(O)c1 [M3, 6-(bis(pyridin-2-ylmethyl)amino)-2-(3,4-dihydroxyphenethyl)-1H-benzo[de]isoquinoline-1,3(2H)-dione] was tested, and the cytotoxicity (SH-SY5Y cells [1]) was “minimal toxicity”, the “translocation of Nrf2 to the nucleus” value (Nrf2) was “reduced the translocation of Nrf2 to the nucleus” and the cell viability (SH-SY5Y cells [2]) was about 79%. The “mitochondrial ROS levels compared to control cells” value (SH-SY5Y cells [3]; compound 20 μM) was 1.6 fold and the “mitochondrial ROS levels compared to control cells” value (SH-SY5Y cells [3]; compound 50 μM) was 1.25 fold.
